According to PMC12439480, “Dimeric CCK2R radiotheranostic tracers synergize with mTOR inhibition for enhanced tumor therapy” (Theranostics, 2025):
Numbered stars: 1 amine (or outer) side, 2 acyl side, 3 side chain; on linkers, the order of the positions; unused ones are H or OH. Square brackets hold non-standard residues; d marks the D form. Side chains are listed from the residue outwards. Peptide text beside a SMILES is read from it. * marks the point of attachment. DOTA = O=C(O)CN1CCN(CC(=O)O)CCN(CC(=O)*)CCN(CC(=O)O)CC1; d(γGlu) = O=C(O)[C@@H](CCC(=O)[*:2])N[*:1]; 1Nal = N[C@@H](Cc1cccc2ccccc12)C(=O)O; NMeNle = CCCC[C@H](NC)C(=O)O; PEG4 = NCCOCCOCCOCCOCCC(=O)O

Test: Ex vivo biodistribution of 177Lu-labeled compound
Set-up: species or system BALB/c nude mice
Settings: mouse, in vivo
Experimental: To evaluate the biodistribution of [^177Lu]Lu-DOTA-CCK2R-dimer, AR42J tumor-bearing mice received intravenous (i.v.) injections of 3.7 MBq (≈ 120 pmol) of [^177Lu]Lu-DOTA-CCK2R-dimer (dissolved in 200 μL of saline; n = 3/group), and Mice were sacrificed at 1, 4, 24, 48, 72, and 96 h post-injection. The tissues of interest were excised, weighed, and analyzed for radioactivity using a γ-counter.
All animal studies were approved by the Ethics Committee of Fudan University Shanghai Cancer Center (No. FUSCC-IACUC- S2023- 0003). Five-week-old female BALB/c nude mice were purchased from Shanghai SLAC Laboratory Animal
Company. To establish cell-derived xenograft (CDX) models, 1 × 10⁶ AR42J cells (100 μL) were subcutaneously inoculated into the right shoulder of each mouse. […]
Radioactivity levels were measured using a gamma counter, with decay correction applied based on the injection time. The percentage of injected dose per gram of tissue (%ID/g) was calculated for each time point. […]

CCCC[C@@H](C(=O)N[C@@H](CC(=O)O)C(=O)N[C@@H](Cc1cccc2ccccc12)C(N)=O)N(C)C(=O)[C@H](Cc1c[nH]c2ccccc12)NC(=O)CCOCCOCCOCCOCCNC(=O)CC[C@@H](NC(=O)CC[C@H](NC(=O)CN1CCN(CC(=O)O)CCN(CC(=O)O)CCN(CC(=O)O)CC1)C(=O)N[C@H](CCC(=O)NCCOCCOCCOCCOCCC(=O)N[C@@H](Cc1c[nH]c2ccccc12)C(=O)N(C)[C@@H](CCCC)C(=O)N[C@@H](CC(=O)O)C(=O)N[C@@H](Cc1cccc2ccccc12)C(N)=O)C(=O)O)C(=O)O [[177Lu]Lu-DOTA-CCK2R-dimer, metal not drawn] ({DOTA}-E([d(γGlu)-PEG4-Trp-NMeNle-Asp-1Nal-NH2])[d(γGlu)][PEG4]W[NMeNle]D[1Nal]-NH2) showed a tissue uptake at 48 h (Bladder uptake) of 0.03 ± 0.01 %ID/g, a tissue uptake at 72 h (Bladder uptake) of 0.06 ± 0.03 %ID/g and a tissue uptake at 96 h (Bladder uptake) of 0.1 ± 0.05 %ID/g. It also gave a tissue uptake at 1 h (Blood uptake) of 6.93 ± 1.84 %ID/g, a tissue uptake at 4 h (Blood uptake) of 1.19 ± 0.3 %ID/g and a tissue uptake at 24 h (Blood uptake) of 0.05 ± 0.01 %ID/g. It also gave a tissue uptake at 48 h (Blood uptake) of 0.02 ± 0.01 %ID/g, a tissue uptake at 72 h (Blood uptake) of 0.002 ± 0.0005 %ID/g and a tissue uptake at 96 h (Blood uptake) of 0.008 ± 0.007 %ID/g. It also gave a tissue uptake at 1 h (Bone uptake) of 0.65 ± 0.27 %ID/g, a tissue uptake at 4 h (Bone uptake) of 0.35 ± 0.19 %ID/g and a tissue uptake at 24 h (Bone uptake) of 0.04 ± 0.02 %ID/g. The tissue uptake at 48 h (Bone uptake) was 0.004 ± 0.001 %ID/g, the tissue uptake at 72 h (Bone uptake) was 0.03 ± 0.02 %ID/g and the tissue uptake at 96 h (Bone uptake) was 0.02 ± 0.01 %ID/g. For the same compound, the tissue uptake at 1 h (Brain uptake) was 0.14 ± 0.01 %ID/g, the tissue uptake at 4 h (Brain uptake) was 0.03 ± 0.01 %ID/g and the tissue uptake at 24 h (Brain uptake) was 0.003 ± 0.002 %ID/g. It also gave a tissue uptake at 48 h (Brain uptake) of 0.003 ± 0.002 %ID/g, a tissue uptake at 72 h (Brain uptake) of 0.004 ± 0.003 %ID/g and a tissue uptake at 96 h (Brain uptake) of 0.006 ± 0.002 %ID/g. For the same compound, the tissue uptake at 1 h (Heart uptake) was 1.29 ± 0.41 %ID/g, the tissue uptake at 4 h (Heart uptake) was 0.67 ± 0.34 %ID/g and the tissue uptake at 24 h (Heart uptake) was 0.05 ± 0.03 %ID/g. The tissue uptake at 48 h (Heart uptake) was 0.02 ± 0.02 %ID/g, the tissue uptake at 72 h (Heart uptake) was 0.02 ± 0.008 %ID/g and the tissue uptake at 96 h (Heart uptake) was 0.03 ± 0.01 %ID/g. The tissue uptake at 1 h (Kidney uptake) was 8.92 ± 1.05 %ID/g, the tissue uptake at 4 h (Kidney uptake) was 6.79 ± 1.58 %ID/g and the tissue uptake at 24 h (Kidney uptake) was 3.43 ± 0.84 %ID/g. The tissue uptake at 48 h (Kidney uptake) was 1.59 ± 1 %ID/g, the tissue uptake at 72 h (Kidney uptake) was 1.6 ± 0.39 %ID/g and the tissue uptake at 96 h (Kidney uptake) was 1 ± 0.5 %ID/g. It also gave a tissue uptake at 1 h (Large intestine uptake) of 1.14 ± 0.38 %ID/g, a tissue uptake at 4 h (Large intestine uptake) of 0.61 ± 0.03 %ID/g and a tissue uptake at 24 h (Large intestine uptake) of 0.07 ± 0.01 %ID/g. For the same compound, the tissue uptake at 48 h (Large intestine uptake) was 0.05 ± 0.02 %ID/g, the tissue uptake at 72 h (Large intestine uptake) was 0.04 ± 0.03 %ID/g and the tissue uptake at 96 h (Large intestine uptake) was 0.05 ± 0.03 %ID/g. The tissue uptake at 1 h (Liver uptake) was 4.44 ± 1.8 %ID/g, the tissue uptake at 4 h (Liver uptake) was 3.42 ± 0.75 %ID/g and the tissue uptake at 24 h (Liver uptake) was 0.61 ± 0.11 %ID/g. For the same compound, the tissue uptake at 48 h (Liver uptake) was 0.58 ± 0.16 %ID/g, the tissue uptake at 72 h (Liver uptake) was 0.37 ± 0.05 %ID/g and the tissue uptake at 96 h (Liver uptake) was 0.42 ± 0.11 %ID/g. For the same compound, the tissue uptake at 1 h (Lung uptake) was 2.4 ± 0.05 %ID/g, the tissue uptake at 4 h (Lung uptake) was 1.06 ± 0.39 %ID/g and the tissue uptake at 24 h (Lung uptake) was 0.04 ± 0.03 %ID/g. It also gave a tissue uptake at 48 h (Lung uptake) of 0.02 ± 0.01 %ID/g, a tissue uptake at 72 h (Lung uptake) of 0.01 ± 0.01 %ID/g and a tissue uptake at 96 h (Lung uptake) of 0.02 ± 0.005 %ID/g. The tissue uptake at 1 h (Muscle uptake) was 0.36 ± 0.1 %ID/g, the tissue uptake at 4 h (Muscle uptake) was 0.16 ± 0.17 %ID/g and the tissue uptake at 24 h (Muscle uptake) was 0.01 ± 0.01 %ID/g. It also gave a tissue uptake at 48 h (Muscle uptake) of 0.007 ± 0.003 %ID/g, a tissue uptake at 72 h (Muscle uptake) of 0.007 ± 0.002 %ID/g and a tissue uptake at 96 h (Muscle uptake) of 0.006 ± 0.004 %ID/g. The tissue uptake at 1 h (Small intestine uptake) was 1.45 ± 0.39 %ID/g, the tissue uptake at 4 h (Small intestine uptake) was 0.58 ± 0.31 %ID/g and the tissue uptake at 24 h (Small intestine uptake) was 0.06 ± 0.04 %ID/g. For the same compound, the tissue uptake at 48 h (Small intestine uptake) was 0.06 ± 0.01 %ID/g, the tissue uptake at 72 h (Small intestine uptake) was 0.02 ± 0.01 %ID/g and the tissue uptake at 96 h (Small intestine uptake) was 0.04 ± 0.03 %ID/g. It also gave a tissue uptake at 1 h (Spleen uptake) of 2.62 ± 1.02 %ID/g, a tissue uptake at 4 h (Spleen uptake) of 2.23 ± 0.32 %ID/g and a tissue uptake at 24 h (Spleen uptake) of 0.15 ± 0.08 %ID/g. The tissue uptake at 48 h (Spleen uptake) was 0.02 ± 0.01 %ID/g, the tissue uptake at 72 h (Spleen uptake) was 0.05 ± 0.03 %ID/g and the tissue uptake at 96 h (Spleen uptake) was 0.15 ± 0.09 %ID/g. It also gave a tissue uptake at 1 h (Stomach uptake) of 3.88 ± 0.66 %ID/g, a tissue uptake at 4 h (Stomach uptake) of 3.05 ± 0.6 %ID/g and a tissue uptake at 24 h (Stomach uptake) of 1.07 ± 0.28 %ID/g. For the same compound, the tissue uptake at 48 h (Stomach uptake) was 1.04 ± 0.17 %ID/g, the tissue uptake at 72 h (Stomach uptake) was 0.26 ± 0.11 %ID/g and the tissue uptake at 96 h (Stomach uptake) was 0.24 ± 0.3 %ID/g. For the same compound, the tissue uptake at 1 h (Tumor uptake) was 19.2 ± 8.43 %ID/g, the tissue uptake at 4 h (Tumor uptake) was 14.7 ± 2.83 %ID/g and the tissue uptake at 24 h (Tumor uptake) was 6.12 ± 1.45 %ID/g. For the same compound, the tissue uptake at 48 h (Tumor uptake) was 4.32 ± 0.75 %ID/g, the tissue uptake at 72 h (Tumor uptake) was 2.01 ± 0.47 %ID/g and the tissue uptake at 96 h (Tumor uptake) was 1.1 ± 0.04 %ID/g.
